Laboratory results taken from publication PMC9136971 (ACS Central Science, 2022).
Where a SMILES comes first, the peptide text is derived from it. The star is where a group is joined. X1 = O=C(O)[C@H]1CSC(c2nc3ccc(OCc4ccc(N*)cc4)cc3s2)=N1

Key:
[1] = Baseline uptake and biodistribution study in healthy mice; type: in vivo, mouse; conditions: for baseline bioluminescence distribution: healthy Fluc+ BALB/c mice, D-luciferin 3 mg i.p., GBLI2 200 μg i.v. retro-orbital
A20Luc+ cells = test: Cell viability assay; type: cell-based, mouse; conditions: 5 μM – 100 μM, 37 °C, 3.5 h, absorbance at 490 nm
[2] = tested on: activated untransduced CD8+ T cells; test: Cell viability assay; type: cell-based, mouse; conditions: 5 μM – 100 μM, 37 °C, 3.5 h, absorbance at 490 nm
CAR T cells = test: Cell viability assay; type: cell-based, mouse; conditions: 5 μM – 100 μM, 37 °C, 3.5 h, absorbance at 490 nm
[3] = tested on: untransduced activated CD8+ T cells; test: Cellular uptake assay; type: cell-based, mouse; conditions: 5 μM, pre-incubation 30 min, 2.5 h at 4 or 37 °C, flow cytometry
[4] = DLS size distribution and zeta potential of nanoaggregates; type: physicochemical; conditions: without gzmB cleavage

| Compound | baseline bioluminescence distribution [1] | cell viability (MTS) (A20Luc+ cells) | organ distribution of fluorescence after dissection ([1]; 5 nmol retro orbital, 1 h post i.v. injection, organ imaging, n = 3) | cell viability (MTS) [2] | cell viability (MTS) (CAR T cells) | G-SNAT-Cy5 uptake at 4 °C versus 37 °C (MFI-Cy5 of viable cells) [3] | DLS signal of G-SNAT uncleaved by gzmB [4] |
| --- | --- | --- | --- | --- | --- | --- | --- |
| CC[C@H](C)[C@H](NC(C)=O)C(=O)N[C@@H](CCC(=O)O)C(=O)N[C@@H](Cc1ccccc1)C(=O)N[C@@H](CC(=O)O)C(=O)Nc1ccc(COc2ccc3nc(C4=N[C@@H](C(=O)O)CS4)sc3c2)cc1 [GBLI2] (Ac-IEFD-X1) | highly concentrated in the spleen |  |  |  |  |  |  |
| O=C([O-])[C@H]1CSC(c2nc3ccc(O)cc3s2)=N1.[K+] [D-luciferin, D-luciferin, potassium salt] | mainly restricted to the abdomen |  |  |  |  |  |  |
| CCSSC[C@H](NC(=O)[C@H](CC(=O)O)NC(=O)[C@H](Cc1ccccc1)NC(=O)[C@H](CCC(=O)O)NC(=O)[C@@H](NC(C)=O)[C@@H](C)CC)C(=O)NCC(=O)N[C@@H](Cc1cn(CCCNC(=O)CCCCC[N+]2=C(/C=C/C=C/C=C3/N(C)c4ccc(S(=O)(=O)[O-])cc4C3(C)C)C(C)(C)c3cc(S(=O)(=O)O)ccc32)nn1)C(=O)NCc1ccc(C(=O)NCCCOc2cnc(C#N)nc2)cc1 [G-SNAT-Cy5] |  | well tolerated | mainly associated with the gastrointestinal tract | well tolerated | well tolerated | significantly attenuated |  |
| (4S,10R,13S,16S,19S)-19-((2S,3S)-2-acetamido-3-methylpentanamido)-16-benzyl-13(carboxymethyl)-1-(4-((3-((2-cyanopyrimidin-5-yl)oxy)propyl)carbamoyl)phenyl)-10-((ethylsulfinothioyl)methyl)-3,6,9,12,15,18-hexaoxo-4-(prop-2-yn-1-yl)-2,5,8,11,14,17-hexaazadocosan-22-oic acid [G-SNAT] |  | well tolerated |  | well tolerated | well tolerated |  | No DLS signal could be detected |
